We go through three compounds from US5981517A, “Androstene derivatives” (priority 1997, dated 1999).

The share remaining is the share of the starting amount still present when the sample was taken. A word on the pIC50: it is −log10 of the IC50, conventionally taken in molar units.

pIC50: −log10 of the molar value.

The target in data set [1] is T1, rat lung glucocorticoid receptor (Rattus norvegicus, UniProt P06536).
T1 construct: Immediately after resection of the lungs, the tissue was frozen in ice; The cytosol was prepared; from tissue; host or cells: lung cytosol of adrenalectomized male Sprague-Dawley rats
T1 sequence (P06536 1-795): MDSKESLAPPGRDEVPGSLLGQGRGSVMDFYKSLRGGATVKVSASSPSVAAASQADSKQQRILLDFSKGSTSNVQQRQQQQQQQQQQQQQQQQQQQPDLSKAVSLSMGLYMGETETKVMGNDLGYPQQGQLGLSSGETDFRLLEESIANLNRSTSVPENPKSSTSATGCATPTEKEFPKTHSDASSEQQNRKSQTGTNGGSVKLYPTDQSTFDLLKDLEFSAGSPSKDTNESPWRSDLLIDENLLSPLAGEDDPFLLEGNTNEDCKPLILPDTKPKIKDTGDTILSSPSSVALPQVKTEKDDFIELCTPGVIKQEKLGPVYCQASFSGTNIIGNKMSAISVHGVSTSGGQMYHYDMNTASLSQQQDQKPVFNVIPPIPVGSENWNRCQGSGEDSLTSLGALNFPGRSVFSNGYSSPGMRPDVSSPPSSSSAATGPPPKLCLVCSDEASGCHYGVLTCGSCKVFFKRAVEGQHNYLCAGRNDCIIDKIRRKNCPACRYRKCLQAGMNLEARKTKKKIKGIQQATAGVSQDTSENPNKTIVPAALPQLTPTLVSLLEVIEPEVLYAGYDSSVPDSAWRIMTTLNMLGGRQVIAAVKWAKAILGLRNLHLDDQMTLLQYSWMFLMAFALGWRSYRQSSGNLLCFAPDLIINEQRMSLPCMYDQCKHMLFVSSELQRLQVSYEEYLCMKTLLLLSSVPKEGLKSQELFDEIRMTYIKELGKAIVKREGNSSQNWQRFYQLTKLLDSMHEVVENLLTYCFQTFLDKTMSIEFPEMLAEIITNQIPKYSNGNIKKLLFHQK
In words: Receptor binding studies ([3H]triamcinolone acetonide displacement). Further details: Receptor binding affinity: scale not given here. The settings on record: for RBA: further receptor binding studies (Table X), dexamethasone = 100, * mean ± SE of 3-5 results; for Relative binding affinity (RBA): with respect to dexamethasone (RBA = 100). Here is the method:
Male Sprague-Dawley rats, each weighing 150 to 200 g, were used 6 days after adrenalectomy. Rats were sacrificed by decapitation. Immediately after resection of the lungs, the tissue was frozen in ice. […] Portions (5 ml) of the cytosol were frozen in liquid nitrogen and stored at -80° C.
The cytosol was thawed in a water bath and diluted with 1 part of incubation buffer containing a 15 mM concentration of diisopropyl fluorophosphate. […] After a 2 hour incubation period at room temperature (24° C.), the unbound steroid was removed by addition of a 2% suspension of activated charcoal in incubation buffer (400 μL). The mixture was incubated for 5 minutes at room temperature and then was centrifuged at about 10,000 g for 3 minutes in the microcentrifuge. The radioactivity (cpm) in the supernatant (400 μL) was determined by liquid scintillation counting.
The data is fitted to the following logistic function:
B=T-T * C^N /(C^N +IC50^N)+NS,
where B=CPM in the presence of competitor, T=CPM in the absence of competitor, C=competitor concentration, N=Hill slope factor, and NS=cpm under non-specific binding conditions.
For the representative compound of the invention B, receptor binding affinity was investigated with and without Δ^1 -cortienic acid in the incubation solution to study the effect of Δ^1 -cortienic acid on the receptor binding.
Further studies to evaluate the relative receptor binding affinities of compounds of the invention, other compounds of formula (VII) hereinabove and well-known anti-inflammatory steroids were undertaken, using the methods described in the RECEPTOR BINDING STUDIES set forth above. […] For comparison purposes, the following compounds having formula (VII) above were also tested: […]

Data set [2] relates to forearms of a human volunteer. In words: Further human vasoconstriction testing, Method 1. Note: key: 0: normal skin; 1: slight pallor of indistinct outline; 2: pallor with at least two corners outlined; 3: even pallor with a clear outline of the application sites; 4: very intense pallor. It counts as in vivo. The gist of the method:
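Each mixture, 50 μL in ethanol, was loaded onto circular 8 mm patches. Once the ethanol had evaporated, the patches were placed on a human volunteer's forearms under a water-impervious film for 3 hr. After the patches were removed, vasoconstriction was scored at intervals from 0 (normal skin) to 4 (very intense pallor). The same individual received all tests, run 2-4 times per compound.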

A short description of another data set: in vitro. It counts as in vitro ADME. To be noted: rat, lung cytosol. Here is the method:
To determine that the compounds of the invention can be stable during the incubation period, the test compounds A, B, C, and D were investigated for their stabilities at the incubation conditions, which are room temperature and 2 hours, for receptor binding studies. The frozen cytosol which was made for the receptor binding study was thawed in a water bath and diluted with 1 part of incubation buffer (10 mM Tris/HCl, 10 mM sodium molybdate, and 2 mM 1,4-dithiothreitol) containing a 15 mM concentration of enzyme inhibitor, diisopropyl fluorophosphate. Portions (560 μL) of the diluted cytosol were added to centrifuge tubes containing 80 μL portions of blank incubation buffer instead of volume of tracer ([^3 H]triamcinolone acetonide) which would be used in the receptor binding study (RBS), 80 μL of solution of a Δ^1 -cortienic acid (0.1 mM) in buffer (the final concentration of Δ^1 -cortienic acid in the incubation medium was […]), and 80 μL of 100,000 nM of concentrations of test compounds in ethanol to give a final concentration of 10,000 nM. This mixture was kept at room temperature for 2 hours. Samples of 0.1 mL were taken at appropriate time intervals (0, 0.5, 1, 1.5, 2 hours) and were mixed with 0.2 mL of acetonitrile containing 5% DMSO. Each mixture was centrifuged and the supernatant were injected in the HPLC.
Male Sprague-Dawley rats, each weighing 150 to 200 g, were used 6 days after adrenalectomy. Rats were sacrificed by decapitation. Immediately after resection of the lungs, the tissue was frozen in ice. The cytosol was prepared using a slight modification of a previously described method (Dahlberg, 1984); After addition of 6 volumes of ice-cold incubation buffer (10 mM Tris/HCl, 10 mM sodium molybdate, and 2 mM 1,4-dithiothreitol), the tissue was homogenized with the Virtis 45 homogenizer at full speed, for 4 periods of 10 seconds with a 10-second cooling period between each step. The homogenate was centrifuged at 35,000 g for 1 hour at 4° C. in a Beckman ultracentrifuge L8-70M equipped with a T170 rotor. Portions (5 ml) of the cytosol were frozen in liquid nitrogen and stored at -80° C.

The mark [3] stands for this setting: 24 Hours, 1 hour re-occlusion at 20-21 hours, 0.01 mM.
The mark [4] stands for this setting: 24 Hours, 1 hour re-occlusion at 20-21 hours, 0.05 mM.
Where [5] appears, read: 24 Hours, 1 hour re-occlusion at 20-21 hours, 0.1 mM.
Setting [6] is: 24 Hours, 1 hour re-occlusion at 20-21 hours, 0.5 mM.

In data set [1], `COC(=O)[C@@]1(OC(=O)C(Cl)Cl)[C@H](C)C[C@H]2[C@@H]3CCC4=CC(=O)C=C[C@]4(C)[C@@]3(F)[C@@H](O)C[C@@]21C` [Compound I, methyl 17α-dichloroacetoxy-9α-fluoro-11β-hydroxy-16α-methylandrosta-1,4-dien-3-one-17β-carboxylate] had an RBA of 1745 ± 185. In data set [1] (with Δ1-cortienic acid), the “Relative binding affinity (RBA)” value is listed as 495. The Vasoconstriction activity in data set [2] (3 Hours, 0.01 mM) is 1; in data set [2] (3 Hours, 0.05 mM) it was 2; in data set [2] (3 Hours, 0.1 mM), 2; in data set [2] (3 Hours, 0.5 mM), 3; in data set [2] (3 Hours, 1 mM) it was 4; in data set [2] (3 Hours, 5 mM), 4. The Vasoconstriction activity in data set [2] (3 Hours, 10 mM) is on record as 4; in data set [2] (20 Hours, 0.01 mM), 0; in data set [2] (20 Hours, 0.05 mM), 1; in data set [2] (20 Hours, 0.1 mM) it was 1; in data set [2] (20 Hours, 0.5 mM) it was 1; in data set [2] (20 Hours, 1 mM) it was 1. Moreover, the Vasoconstriction activity was found to be 2 in data set [2] (20 Hours, 5 mM); 1 in data set [2] (setting [3]); 2 in data set [2] (setting [4]); 3 in data set [2] (setting [5]); 3 in data set [2] (setting [6]). For the same compound, the share remaining at 2 h in “in vitro” is greater than 90%.
For `CCOC(=O)[C@@]1(OC(=O)C(Cl)Cl)CC[C@H]2[C@@H]3CCC4=CC(=O)C=C[C@]4(C)[C@H]3[C@@H](O)C[C@@]21C` [Compound B, Ethyl 17α-dichloroacetoxy-11β-hydroxyandrosta-1,4-dien-3-one-17β-carboxylate], the figures for the Receptor binding affinity in data set [1] (With Δ1-cortienic acid (Table IX)) and in data set [1] (Without Δ1-cortienic acid (Table IX)) were 204 and 181, respectively. The RBA in data set [1] was 222 ± 16. Besides, the pIC50 in data set [1] (rat lung cytosol, 10 nM [3H]triamcinolone acetonide, with Δ1-cortienic acid, 2 h, 24° C., read-out: IC50) was 7.40. The “Relative binding affinity (RBA)” value in data set [1] (with Δ1-cortienic acid) is 204. For the same compound, the Vasoconstriction activity is given as 0 in data set [2] (3 Hours, 0.01 mM); 1 in data set [2] (3 Hours, 0.05 mM); 1 in data set [2] (3 Hours, 0.1 mM); 2 in data set [2] (3 Hours, 0.5 mM); 3 in data set [2] (3 Hours, 1 mM); 3 in data set [2] (3 Hours, 5 mM). The Vasoconstriction activity was 4 in data set [2] (3 Hours, 10 mM); 0 in data set [2] (20 Hours, 0.01 mM); 0 in data set [2] (20 Hours, 0.05 mM); 1 in data set [2] (20 Hours, 0.1 mM); 1 in data set [2] (20 Hours, 0.5 mM); 1 in data set [2] (20 Hours, 1 mM). Also, the Vasoconstriction activity in data set [2] (20 Hours, 5 mM) was 1; in data set [2] (20 Hours, 10 mM) it was 2; in data set [2] (setting [3]), 1; in data set [2] (setting [4]) it was 1; in data set [2] (setting [5]), 2; in data set [2] (setting [6]), 2. For the same compound, in the data set “in vitro”, the fraction remaining at 2 h amounted to 75%. In “in vitro”, this compound came in with a fraction remaining at 2 h, 10 µM of 100%.
Take `CCCCC(=O)O[C@]1(C(=O)CO)[C@@H](C)C[C@H]2[C@@H]3CCC4=CC(=O)C=C[C@]4(C)[C@@]3(F)[C@@H](O)C[C@@]21C` [Betamethasone 17-valerate, reference compound]: the RBA in data set [1] came out at 1742 ± 130. In addition, the Vasoconstriction activity amounted to 0 in data set [2] (3 Hours, 0.01 mM); 1 in data set [2] (3 Hours, 0.05 mM); 1 in data set [2] (3 Hours, 0.1 mM); 2 in data set [2] (3 Hours, 0.5 mM); 3 in data set [2] (3 Hours, 1 mM); 3 in data set [2] (3 Hours, 5 mM). The Vasoconstriction activity in data set [2] (3 Hours, 10 mM) came to 4; in data set [2] (20 Hours, 0.01 mM), 0; in data set [2] (20 Hours, 0.05 mM), 1; in data set [2] (20 Hours, 0.1 mM) it was 1; in data set [2] (20 Hours, 0.5 mM), 1; in data set [2] (20 Hours, 1 mM), 1. The Vasoconstriction activity in data set [2] (20 Hours, 5 mM) is 1; in data set [2] (20 Hours, 10 mM), 2; in data set [2] (setting [3]) it was 1; in data set [2] (setting [4]), 1; in data set [2] (setting [5]), 2; in data set [2] (setting [6]), 2.
